{
  "source": "patent US20240254086A1",
  "about": "“(HETERO)ARYLAMIDE COMPOUND AND PEST CONTROL AGENT” (Nippon Soda Co., Ltd., priority 2021, published 2024)",
  "format_in_all_cases": "in vivo",
  "key": {"[1]": {"test_system": "Mythimna separata", "assay": "Efficacy test against Mythimna separata (maize leaf dip)", "details": "125 ppm by mass, maize leaf pieces immersed 30 seconds, second-instar larvae, 6 days after release, 25° C.", "source_text": "(§1) 5 parts by mass of the compound of the present invention, 93.6 parts by mass of dimethylformamide, and 1.4 parts by mass of polyoxyethylene alkylaryl ether were mixed and dissolved to prepare an emulsion (I) containing 5% of an active ingredient.\nMaize leaf pieces were immersed in the diluent solution for 30 seconds. These maize leaf pieces were placed in a petri dish, and five second-instar larvae of Mythimna separata were released to prepare an emulsion-treated section.\nSimilarly, the solvent control solution was diluted with water at the same ratio as that of the emulsion (I), and maize leaf pieces were immersed therein for 30 seconds. These maize leaf pieces were placed in a petri dish, and five second-instar larvae of Mythimna separata were released to prepare a solvent control section.\nThe petri dishes were left to stand in a thermostatic chamber at a temperature of 25° C. and a humidity of 60% during the test period. Mortality was evaluated at a time of passage of 6 days from the release of the insects, and the insecticidal rate in the emulsion-treated section was calculated, based on the following expression. At the same time, the food consumptions in the emulsion-treated section and the solvent control section were measured. The test was repeated twice.\nInsecticidal rate (%)=(Number of dead insects/Number of test insects)×100"}, "[2]": {"test_system": "Tetranychus kanzawai", "assay": "Efficacy test against Tetranychus kanzawai (spray on kidney bean)", "details": "240 h, 125 ppm by mass, sprayed on kidney bean plants, adult females, 10 days after spraying, 25° C., read-out: insecticical rate against Tetranychus kanzawai (mortality of adults)", "source_text": "as §1\nThe primary leaves of Kidney bean plants were inoculated with 5 adult female Tetranychus kanzawai from Okayama Prefecture. […] This drug was sprayed on the Kidney bean plants and air-dried. The kidney bean seedlings were then placed in a thermostatic chamber with a temperature of 25° C. and humidity of 65%. Mortality of the adult […] was investigated after 10 days had passed from the spraying. The test was repeated twice."}, "[3]": {"test_system": "Tetranychus urticae", "assay": "Efficacy test against Tetranychus urticae (spray on green beans)", "details": "240 h, 125 ppm by mass, sprayed on green beans, adult females, 10 days after spraying, 25° C., read-out: insecticical rate against Tetranychus urticae (mortality of adults)", "method": "as §1\nSeedlings of green beans were grown in 3-inch pots, and 8 adult female Tetranychus urticae from Aomori Prefecture were inoculated onto the first leaves. […] The diluent solution was sprayed on the green beans. The green beans were then placed in a thermostatic chamber with a temperature of 25° C. and humidity of 65%. Mortality of the adult […] was investigated after 10 days had passed from the spraying. The test was repeated twice."}},
  "data": [
    {"compound": "CCSCCC(CC)(CC)CNC(=O)c1cc(C#N)c(-c2ccc(OC(F)(F)F)cc2OC)nc1C", "note": "[A-27]", "values": [
      {"measurement": "Insecticidal rate against Mythimna separata", "setting": "[1]", "value": 90, "unit": "%"}
    ]},
    {"compound": "CCSCCC(C)(C)CN(C)C(=O)c1cc(C#N)c(-c2ccc(C(F)(C(F)(F)F)C(F)(F)F)cc2)nc1C", "note": "[A-105]", "values": [
      {"measurement": "Insecticidal rate against Mythimna separata", "setting": "[1]", "value": 90, "unit": "%"}
    ]},
    {"compound": "CCSCC(C)(C)CNC(=O)c1cc(C#N)c(-c2ccc(C(F)(F)F)cc2)nc1C", "note": "[A-147, 5-Cyano-N-[3-(ethylthio)-2,2-dimethylpropyl]-2-methyl-6-[4-(trifluoromethyl)phenyl]ni cotinamide]", "values": [
      {"measurement": "mortality at 125 ppm", "setting": "[2]", "value": "≥ 90", "unit": "%"},
      {"measurement": "mortality at 125 ppm", "setting": "[3]", "value": "≥ 90", "unit": "%"}
    ]},
    {"compound": "CCSCC(C)(C)CN(C)C(=O)c1cc(C#N)c(-c2ccc(C(F)(F)F)cc2)nc1C", "note": "[A-146, 5-Cyano-N-[3-(ethylthio)-2,2-dimethylpropyl]-N,2-dimethyl-6-[4-(trifluoromethyl)pheny 1]nicotinamide]", "values": [
      {"measurement": "mortality at 125 ppm", "setting": "[2]", "value": "≥ 90", "unit": "%"},
      {"measurement": "mortality at 125 ppm", "setting": "[3]", "value": "≥ 90", "unit": "%"}
    ]},
    {"compound": "CCSCCC(CC)(CC)CNC(=O)c1cc(C#N)c(-c2ccc(C(F)(F)F)cc2)cc1C(F)(F)F", "note": "[C-7, 2-Cyano-N-[2,2-diethyl-4-(ethylthio)butyl]-4′,5-bis(trifluoromethyl)-(1,1′-biphenyl)-4-ca rboxamide]", "values": [
      {"measurement": "mortality at 125 ppm", "setting": "[2]", "value": "≥ 90", "unit": "%"},
      {"measurement": "mortality at 125 ppm", "setting": "[3]", "value": "≥ 90", "unit": "%"}
    ]},
    {"compound": "CCSCCC(CC)(CC)CNC(=O)c1cc(C#N)c(-c2ccc(C(F)(F)F)cc2)nc1C", "note": "[A-78, 5-Cyano-N-[2,2-diethyl-4-(ethylthio)butyl]-2-methyl-6-[4-(trifluoromethyl)phenyl]nicoti namide]", "values": [
      {"measurement": "mortality at 125 ppm", "setting": "[2]", "value": "≥ 90", "unit": "%"},
      {"measurement": "mortality at 125 ppm", "setting": "[3]", "value": "≥ 90", "unit": "%"}
    ]}
  ]
}
